Source: patent publication US6103732A, “Carboxylic acid derivatives, their production and use” (BASF Aktiengesellschaft, priority 1996, dated 2000)
Like-named read-outs stand apart in the source and are kept apart here.

Key:
[1] = biological target: T1, human ETA receptor (Homo sapiens, UniProt P25101); assay: Receptor binding assay, ETA ([125I]-ET1, membranes of ETA receptor-expressing CHO cells)
T1 construct: expressed in transfected cells; host or cells: CHO cells
T1 sequence (P25101 21-427): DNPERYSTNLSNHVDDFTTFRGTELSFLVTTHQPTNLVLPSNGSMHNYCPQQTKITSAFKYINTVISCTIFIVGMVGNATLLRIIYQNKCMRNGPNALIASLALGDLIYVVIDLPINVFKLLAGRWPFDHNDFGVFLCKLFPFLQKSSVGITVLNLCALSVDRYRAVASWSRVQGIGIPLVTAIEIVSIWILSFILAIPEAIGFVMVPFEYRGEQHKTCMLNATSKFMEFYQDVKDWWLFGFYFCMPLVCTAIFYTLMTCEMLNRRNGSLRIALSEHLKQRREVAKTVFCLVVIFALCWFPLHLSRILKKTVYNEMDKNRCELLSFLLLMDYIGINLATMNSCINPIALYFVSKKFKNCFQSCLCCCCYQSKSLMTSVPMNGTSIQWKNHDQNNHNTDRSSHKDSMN
Experimental: (§1) Cloned human ETA receptor-expressing CHO cells and guinea pig cerebellar membranes with >60% ETB compared with ETA receptors were used for binding studies.
The ETA receptor-expressing CHO cells were grown in F12 medium containing 10% fetal calf serum, 1% glutamine, 100 E/ml penicillin and 0.2% streptomycin (Gibco BRL, Gaithersburg, Md., USA). After 48 h, the cells were washed with PBS and incubated with 0.05% trypsin-containing PBS for 5 min. Neutralization was then carried out with F12 medium and the cells were collected by centrifugation at 300×g. To lyse the cells, the pellet was briefly washed with lysis buffer (5 mM tris-HCl, pH 7.4 with 10% glycerol) and then incubated at a concentration of 10^7 cells/ml of lysis buffer at 4° C. for 30 min. The membranes were centrifuged at 20,000×g for 10 min, and the pellet was stored in liquid nitrogen.
(§2) The nonspecific binding was determined with 10^-7 M ET1. After 30 min, filtration was carried out through GF/B glass fiber filters (Whatman, England) in a Skatron cell collector (Skatron, Lier, Norway) to separate free and bound radioligands, and the filters were washed with ice-cold tris-HCl buffer, pH 7.4 with 0.2% BSA. The radioactivity collected on the filters was quantified using a Packard 2200 CA liquid scintillation counter.

[2] = biological target: T2, ETB receptor (Cavia porcellus, UniProt H0VTF3); assay: Receptor binding assay, ETB ([125I]-RZ3, guinea pig cerebellar membranes)
T2 construct: Guinea pig cerebella were homogenized in a Potter-Elvejhem homogenizer; from tissue; host or cells: guinea pig cerebellum (membranes)
T2 sequence (H0VTF3 27-415): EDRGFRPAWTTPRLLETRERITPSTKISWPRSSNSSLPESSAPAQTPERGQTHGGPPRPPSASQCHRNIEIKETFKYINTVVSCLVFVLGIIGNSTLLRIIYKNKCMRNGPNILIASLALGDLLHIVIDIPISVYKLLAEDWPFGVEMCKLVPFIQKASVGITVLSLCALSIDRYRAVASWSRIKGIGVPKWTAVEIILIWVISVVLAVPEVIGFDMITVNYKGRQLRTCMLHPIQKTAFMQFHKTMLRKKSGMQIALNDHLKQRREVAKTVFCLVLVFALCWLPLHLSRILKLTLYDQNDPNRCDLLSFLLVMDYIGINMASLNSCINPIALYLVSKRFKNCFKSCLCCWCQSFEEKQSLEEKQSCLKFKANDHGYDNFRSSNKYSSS
Experimental: as §1
Guinea pig cerebella were homogenized in a Potter-Elvejhem homogenizer and were obtained by differential centrifugation at 1,000×g for 10 min and repeated centrifugation of the supernatent at 20,000×g for 10 min.
as §2

[3] = cloned human ETA receptor-expressing CHO cell membranes, 25 pM [125I]-ET1, 30 min, read-out: Receptor binding data (Ki values) ETA
[4] = guinea pig cerebellar membranes (>60% ETB compared with ETA receptors), 25 pM [125I]-RZ3, 30 min, read-out: Receptor binding data (Ki values) ETB

Question: With `COC(c1ccccc1)(c1ccccc1)C(Oc1cc(C(F)(F)F)nc(C(C)(C)C)n1)C(=O)O` (centres unmarked) [Compound I-91, 2-(2-tert-Butyl-6-trifluoromethyl-4-pyrimidinyloxy)-3-methoxy-3,3-diphenylpropionic acid] as the molecule, how does the Ki [1, 3] read?
Answer: 3.3 µM

Question: What about the Ki [2, 4] of the same molecule?
Answer: > 10 µM

Question: Which results are given for `COC(c1ccccc1)(c1ccccc1)C(Oc1cc(C)c2ccccc2n1)C(=O)O` (centres unmarked) [Compound I-166, 2-(4-Methyl-2-quinolinyloxy)-3-methoxy-3,3-diphenylpropionic acid]?
Answer: Ki [1, 3]: 0.5 µM; Ki [2, 4]: 4 µM

Question: How did the Ki [1, 3] turn out when `COC(c1ccccc1)(c1ccccc1)C(Oc1ccc2ccccc2n1)C(=O)O` (centres unmarked) [Compound I-167] was run?
Answer: 3 µM

Question: And the Ki [2, 4]?
Answer: > 7 µM

Question: Which results are given for `COc1cc(OC(C(=O)O)C(OC)(c2ccccc2)c2ccccc2)nc(OC)n1` (centres unmarked) [Compound I-1, 2-(2,6-Dimethoxy-4-pyrimidinyloxy)-3-methoxy-3,3-diphenyl-propionic acid]?
Answer: Ki [1]: 0.038 µM; Ki [2]: 8 µM
